These results are taken from patent US8178506B2, “Oligomeric compounds and compositions for use in modulation of small non-coding RNAs” (Regulus Therapeutics Inc., priority 2003, dated 2012).

In the oligonucleotide strings, read from the 5' end, every base follows the letter of its sugar. An asterisk marks phosphorothioate; unmarked linkages are phosphodiester. Other units and linkages are bracketed, terminal groups are in braces. A string of capitals states the bases alone. e = 2'-O-(2-methoxyethyl) (MOE); [5mC] = 5-methylcytosine

The subject of one data set is HSL. In words: HSL mRNA expression in adipocytes (real-time PCR). The data set is classed as cell-based, human. The conditions noted are these: for HSL (mRNA expression): adipocytes, 250 nM oligomeric compound, day nine post-transfection, relative to control (1.0). A general note: In qPCR the cycle at which signal appears reflects the starting amount.
In the next data set the test system is PPARγ. Put plainly: PPARγ mRNA expression in adipocytes (real-time PCR). The following applies: for PPAR gamma (mRNA expression): adipocytes, 250 nM oligomeric compound, day nine post-transfection, relative to control (1.0). The data set is classed as cell-based, human.
The test system of another data set is adipocytes. Put plainly: Triglyceride accumulation assay in adipocytes. The data set is classed as cell-based, human.
Data set [1] has as its system BJ, B16-F10, T47D, T47Dp53 and HeLa cells. In words: Cell cycle assay (propidium iodide flow cytometry), cell line panel. The data set is classed as cell-based. The conditions noted are these: 150 nM oligomeric compound, 4.5 μg/ml LIPOFECTIN, after 72 hours, propidium iodide flow cytometry.
The test system of the next data set is aP2. Put plainly: aP2 mRNA expression in adipocytes (real-time PCR). The following applies: for AP2 (mRNA expression): adipocytes, 250 nM oligomeric compound, day nine post-transfection, relative to control (1.0). The data set is classed as cell-based, human.
A further data set has as its system HuVECs. Put plainly: Endothelial tube formation assay in HuVECs. The conditions noted are these: 75 nM oligomeric compound, Table 57.
The subject of a further data set is Glut4. In words: Glut4 mRNA expression in adipocytes (real-time PCR). The data set is classed as cell-based, human. The following applies: for Glut4 (mRNA expression): adipocytes, 250 nM oligomeric compound, day nine post-transfection, relative to control (1.0).
Setting [2] is: adipocytes, 250 nM oligomeric compound, relative to control (1.0), Table 15.
Where [3] appears, read: adipocytes, 250 nM oligomeric compound, relative to control (1.0), Table 16.
The mark [4] stands for this setting: differentiating adipocytes transfected with oligomeric compound.

Experimental for HuVECs: In some embodiments, HUVECs are used to measure the effects of oligomeric compounds of the invention on endothelial tube formation activity. The tube formation assay is performed using an in vitro Angiogenesis Assay Kit (Chemicon International, Temecula, Calif.).
Untreated control cells receive LIPOFECTIN™ only.
Approximately fifty hours after transfection, cells are transferred to 96-well plates coated with ECMatrix™ (Chemicon International). Under these conditions, untreated HUVECs form tube-like structures. After an overnight incubation at 37° C., treated and untreated cells are inspected by light microscopy. Tube formation in cells treated with oligomeric compounds is compared to that in untreated control cells. Individual wells are assigned discrete scores from 1 to 5 depending on the extent of tube formation. A score of 1 refers to a well with no tube formation while a score of 5 is given to wells where all cells are forming an extensive tubular network.
In one embodiment, primary human umbilical vein endothelial cells (HuVECs) were used to measure the effects of oligomeric compounds targeted to miRNAs on tube formation activity. HuVECs were routinely cultured in EBM (Clonetics Corporation, Walkersville, Md.) supplemented with SingleQuots supplements (Clonetics Corporation, Walkersville, Md.). […] HuVECs are plated at 3000 cells/well in 96-well plates. One day later, cells are transfected with oligomeric compounds. The tube formation assay is performed using an in vitro Angiogenesis Assay Kit (Chemicon International, Temecula, Calif.).
ISIS 29248 and ISIS 196103 are chimeric 5-10-52′-MOE gapmer oligonucleotides. […] All cytidine residues are 5-methylcytidines. ISIS 342672 (SEQ ID NO: 789) contains 13 mismatches with respect to the mature mir-143 miRNA, and was also used as a negative control. ISIS 342672 is a uniform 2′-MOE phosphorothioate oligomeric compound 22 nucleotides in length. All cytidine residues are 5-methylcytidines.
Oligomeric compound was mixed with LIPOFECTIN™ (Invitrogen Life Technologies, Carlsbad, Calif.) in OPTI-MEM™ (Invitrogen Life Technologies, Carlsbad, Calif.) to achieve a final concentration of 75 nM of oligomeric compound and 2.25 μg/mL LIPOFECTIN™. Before adding to cells, the oligomeric compound, LIPOFECTIN™ and OPTI-MEM™ were mixed thoroughly and incubated for 0.5 hrs. Untreated control cells received LIPOFECTIN™ only. […] Compounds targeted to miRNAs were tested in triplicate, and ISIS 29848 was tested in up to six replicates. […] 100 μL of full growth medium was added to each well. Fifty hours after transfection, cells are transferred to 96-well plates coated with ECMa-trix™ (Chemicon Inter-national). Under these conditions, untreated HuVECs form tube-like structures.

With “327922 (antisense eT*e[5mC]*eA*eG*eT*eT*eT*eT*eG*e[5mC]*eA*eT*eG*eG*eA*eT*eT*eT*eG*e[5mC]*eA*e[5mC]*eA) [compound 327922]”, the “HSL (mRNA expression)” value in the data set with HSL (Table 15) turned out to be 0.95; with HSL (Table 16), 0.72. Also, the “PPAR gamma (mRNA expression)” value in the data set on PPARγ (Table 15) was determined as 1.37; in the data set on PPARγ (Table 16), 0.80. Moreover, the “TG (triglyceride accumulation)” value amounted to 1.09 with adipocytes (setting [2]) and 0.43 in the data set on adipocytes (setting [3]). The “G1 (percentage of cells in phase of the cell cycle)” value in data set [1] came out at 50.4%. For the same substance, the “G2/M (percentage of cells in phase of the cell cycle)” value in data set [1] is 18.9%. The “S (percentage of cells in phase of the cell cycle)” value in data set [1] is 30.7%. The “SubG1 (percentage of cells in phase of the cell cycle)” value in data set [1] turned out to be 10%. The “aneuploid (percentage of cells)” value in data set [1] was 16.8%. For the same substance, the “AP2 (mRNA expression)” value with aP2 (Table 15) was 0.99; with aP2 (Table 16), 0.75. The “% Activity Relative to UTC (tube formation)” value (“% Activity Relative to UTC” below) in the data set with HuVECs is reported as 89.7%. Also, the “Glut4 (mRNA expression)” value in the data set with Glut4 (Table 15) came out at 1.75; with Glut4 (Table 16) it was 0.43.

For the substance “327904 (antisense eA*e[5mC]*eT*e[5mC]*eA*e[5mC]*e[5mC]*eG*eA*e[5mC]*eA*eG*e[5mC]*eG*eT*eT*eG*eA*eA*eT*eG*eT*eT) [compound 327904]”, the “HSL mRNA” value with HSL (setting [4]) is 42 percentage of untreated control (UTC). The “PPAR gamma mRNA” value in the data set with PPARγ (setting [4]) was 54 percentage of untreated control (UTC). The “TG (triglyceride accumulation)” value in the data set with adipocytes (setting [4]) is 56 percentage of untreated control (UTC). In data set [1], the “G1 (percentage of cells in phase of the cell cycle)” value stood at 54.4%, the “G2/M (percentage of cells in phase of the cell cycle)” value was found to be 16.2%, the “S (percentage of cells in phase of the cell cycle)” value is reported as 29.5% and the “SubG1 (percentage of cells in phase of the cell cycle)” value turned out to be 8.6%. The “aneuploid (percentage of cells)” value in data set [1] is 15.6%. Also, in the data set on aP2 (setting [4]), the “AP2 mRNA” value was 65 percentage of untreated control (UTC). Moreover, in the data set on HuVECs, the “% Activity Relative to UTC” value was determined as 89.7%. Further, the “GLUT4 mRNA” value with Glut4 (setting [4]) is on record as 40 percentage of untreated control (UTC).

On to “327903 (antisense eA*eA*e[5mC]*eT*eA*eT*eA*e[5mC]*eA*eA*e[5mC]*e[5mC]*eT*eA*e[5mC]*eT*eA*e[5mC]*e[5mC]*eT*e[5mC]*eA) [compound 327903]”, for which the “HSL (mRNA expression)” value with HSL (Table 15) was 1.23; with HSL (Table 16) it was 0.80. The “PPAR gamma (mRNA expression)” value in the data set with PPARγ (Table 15) is given as 1.19; in the data set on PPARγ (Table 16), 0.98. Also, the results for the “TG (triglyceride accumulation)” value in the data set with adipocytes (setting [2]) and in the data set on adipocytes (setting [3]) were 1.20 and 0.58, respectively. In addition, the “G1 (percentage of cells in phase of the cell cycle)” value in data set [1] was found to be 53.7%. The “G2/M (percentage of cells in phase of the cell cycle)” value in data set [1] worked out at 15.4%. Further, in data set [1], the “S (percentage of cells in phase of the cell cycle)” value stood at 30.9%. The “SubG1 (percentage of cells in phase of the cell cycle)” value in data set [1] was 11%. In addition, in data set [1], the “aneuploid (percentage of cells)” value is listed as 13.4%. The “AP2 (mRNA expression)” value came out at 1.15 with aP2 (Table 15) and 0.92 in the data set on aP2 (Table 16). Further, in the data set on HuVECs, the “% Activity Relative to UTC” value is on record as 103.5%. Besides, the figures for the “Glut4 (mRNA expression)” value in the data set on Glut4 (Table 15) and in the data set on Glut4 (Table 16) were 1.72 and 1.12, respectively.
